Experimental data published in patent US7544710B2 (Les Laboratoires Servier, priority 2002, dated 2009).

System: animals
Experiment: In vivo study with a different strontium salt (strontium chloride)

`[Cl-].[Cl-].[Sr+2]` [strontium chloride] was tested, and the “superficial haemorrhagic lesions in the animals treated” value was “very rapidly caused superficial haemorrhagic lesions”.
